Assay results reported in patent US8247211B2, “Glycopeptide antibiotics” (American Cyanamid Company, priority 2001, dated 2012).
≈ marks a conversion by molar mass, not a printed value. Numbered stars: 1 amine (or outer) side, 2 acyl side, 3 side chain; on linkers, the order of the positions; unused ones are H or OH. Square brackets hold non-standard residues; d marks the D form. Peptide text beside a SMILES is read from it. * marks the point of attachment. ξ: configuration not given here. X1 = N=C1NCC(C(O)C(N[*:1])C(=O)[*:2])N1C1OC(CO)C(O)C(O)C1O; ξEnduracididine(βξ-OH,4'ξ) = N=C1NCC(C(O)C(N)C(=O)O)N1; X2 = OCC1OC(OC2C(CO)OC(*)C(O)C2O)C(O)C(O)C1O; Cha = N[CH](CC1CCCCC1)C(=O)O

Assays:
[1] = system: Staphylococcus aureus-SMITH (GC 4543); assay: Acute lethal infection in mice (ED50); assay type: in vivo; details: female CD-1 mice, intraperitoneal challenge, intravenous dose 30 min. after infection, 7 day survival ratios
In short: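 Female CD-1 mice challenged intraperitoneally with a bacterial dose lethal to untreated controls within 24-48 h. Compound given intravenously in saline or 5% dextrose 30 min post-infection, five mice per dose; ED50 from 7-day survival pooled over 3 tests.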

[2] = Anatomic pathology (heart and kidney histopathology) in mice; assay type: in vivo, CD-1 mice; details: 20 mg/kg intravenously daily for 9 days, microscopic histopathology on day 10
In short: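 Juvenile CD-1 mice (20 days old; 5 vehicle, 5 treated) received glycopeptide antibiotic 20 mg/kg i.v. daily for 9 days. Necropsied tissues formalin-fixed, paraffin-embedded, H&E stained and examined microscopically; findings graded slight to severe versus controls.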

Enterococcus sp. = assay: In vitro antibacterial evaluation: minimum inhibitory concentration (MIC), broth dilution method; assay type: cell-based
In short: (§1)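 Following NCCLS approved standard M7-A2, compounds are serially diluted from 64 to 0.06 μg/mL in Muller-Hinton II […] and inoculated at 5×10^5 CFU/mL; the MIC is the minimum concentration at which growth is inhibited.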

Escherichia coli [3] = assay: as above; assay type: cell-based
In short: as §1

Staphylococcus sp. = assay: as above; assay type: cell-based; details: 18 hours at 35° C.
In short: as §1

Escherichia coli [4] = assay: as above; assay type: cell-based; remark: listed apart in the source
[5] = assay type: in vivo; details: mice, 20 mg/kg intravenously daily for 9 days, serum on day 10
Method: 20-day-old CD-1 mice were divided into a vehicle control group (5 mice) and a treatment group (5 mice). Samples of glycopeptide antibiotics were administered at 20 mg/kg intravenously daily for 9 days. Animals were necropsied on day 10 Sera were analyzed for BUN (blood urea nitrogen), creatinine, AST (aspartic aminotransferase), and ALT (alanine aminotransferase) by routine, standard, automated methods using an Hitachi 747 chemistry analyzer.

Streptococcus sp. = assay: In vitro antibacterial evaluation: minimum inhibitory concentration (MIC), broth dilution method; assay type: cell-based; details: 18 hours at 35° C.
In short: as §1

CC(C)CC(=O)OC1C(OC2C(CO)OC(Oc3ccc(CC4NC(=O)C(C(C)c5ccccc5)NC(=O)CNC(=O)C(CO)NC(=O)C(CC5CNC(=N)N5C5OC(CO)C(O)C(O)C5O)NC(=O)C(CC5CNC(=N)N5)NC4=O)cc3)C(O)C2O)OC(CO)C(O)C1O (centres unmarked) [Example 277b]
median effective dose (ED50), Staphylococcus aureus-SMITH (GC 4543) [1]: >8
Anatomical Pathology (Day 10), Heart [2]: 0
Anatomical Pathology (Day 10), Kidney [2]: +
MIC Enterococcus avium (GC 4558) (Enterococcus sp.): >64 µg/mL
MIC Enterococcus faecalis (ATCC 29212) (Enterococcus sp.): >64 µg/mL
MIC Enterococcus faecalis (GC 4553) (Enterococcus sp.): >64 µg/mL
MIC Enterococcus faecalis (GC 4554) (Enterococcus sp.): >64 µg/mL
MIC Enterococcus faecalis (GC 6189) (Enterococcus sp.; Enterococcus faecalis (GC 6189)): >64 µg/mL
MIC Enterococcus faecium (GC 2243) (Enterococcus sp.): >64 µg/mL
MIC Enterococcus faecium (GC 4556) (Enterococcus sp.): >64 µg/mL
MIC Enterococcus faecium (GC 4557) (Enterococcus sp.): >64 µg/mL
MIC Escherichia coli (GC 4559) (Escherichia coli [3]): >64 µg/mL
MIC Escherichia coli (GC 4560) (Escherichia coli [3]): 32 µg/mL (≈ 23.7 µM)
MIC Coagulase Negative Staphylococcus (GC 4547) (Staphylococcus sp.): >64 µg/mL
MIC Coagulase Negative Staphylococcus (GC 4547) (Staphylococcus sp.; broth dilution): >64 µg/mL
MIC Coagulase Negative Staphylococcus (GC 4548) (Staphylococcus sp.): >64 µg/mL
MIC Coagulase Negative Staphylococcus (GC 4548) (Staphylococcus sp.; broth dilution): >64 µg/mL
MIC Coagulase Negative Staphylococcus (GC 4549) (Staphylococcus sp.): >64 µg/mL
MIC Coagulase Negative Staphylococcus (GC 4549) (Staphylococcus sp.; broth dilution): >64 µg/mL
MIC Coagulase Negative Staphylococcus (GC 4551) (Staphylococcus sp.): >64 µg/mL
MIC Coagulase Negative Staphylococcus (GC 4551) (Staphylococcus sp.; broth dilution): >64 µg/mL
MIC Coagulase Negative Staphylococcus (GC 6257) (Staphylococcus sp.): >64 µg/mL
MIC Coagulase Negative Staphylococcus (GC 6257) (Staphylococcus sp.; broth dilution): >64 µg/mL
MIC Staphylococcus aureus (ATCC 29213) (Staphylococcus sp.): >64 µg/mL
MIC Staphylococcus aureus (ATCC 29213) (Staphylococcus sp.; broth dilution): >64 µg/mL
MIC Staphylococcus aureus (GC 1131) (Staphylococcus sp.): >64 µg/mL
MIC Staphylococcus aureus (GC 1131) (Staphylococcus sp.; broth dilution): >64 µg/mL
MIC Staphylococcus aureus (GC 3051) (Staphylococcus sp.): >64 µg/mL
MIC Staphylococcus aureus (GC 3051) (Staphylococcus sp.; broth dilution): >64 µg/mL
MIC Staphylococcus aureus (GC 3053) (Staphylococcus sp.): >64 µg/mL
MIC Staphylococcus aureus (GC 3053) (Staphylococcus sp.; broth dilution): >64 µg/mL
MIC Staphylococcus aureus (GC 4541) (Staphylococcus sp.): >64 µg/mL
MIC Staphylococcus aureus (GC 4541) (Staphylococcus sp.; broth dilution): >64 µg/mL
MIC Staphylococcus aureus (GC 4542) (Staphylococcus sp.): >64 µg/mL
MIC Staphylococcus aureus (GC 4542) (Staphylococcus sp.; broth dilution): >64 µg/mL
MIC Staphylococcus aureus (GC 4544) (Staphylococcus sp.): >64 µg/mL
MIC Staphylococcus aureus (GC 4544) (Staphylococcus sp.; broth dilution): >64 µg/mL
MIC Staphylococcus aureus (GC 4545) (Staphylococcus sp.): >64 µg/mL
MIC Staphylococcus aureus (GC 4545) (Staphylococcus sp.; broth dilution): >64 µg/mL
MIC Staphylococcus aureus-SMITH (GC 4543) (Staphylococcus sp.): >64 µg/mL
MIC Staphylococcus aureus-SMITH (GC 4543) (Staphylococcus sp.; broth dilution): >64 µg/mL
MIC Staphylococcus haemolyticus (GC 4546) (Staphylococcus sp.): >64 µg/mL
MIC Staphylococcus haemolyticus (GC 4546) (Staphylococcus sp.; broth dilution): >64 µg/mL
MIC Escherichia coli (ATCC 25922) (Escherichia coli [4]): >64 µg/mL

CC(C)CC(=O)OCC1OC(OC2C(CO)OC(Oc3ccc(CC4NC(=O)C(C(C)c5ccccc5)NC(=O)CNC(=O)C(CO)NC(=O)C(CC5CNC(=N)N5C5OC(CO)C(O)C(O)C5O)NC(=O)C(CC5CNC(=N)N5)NC4=O)cc3)C(O)C2O)C(O)C(O)C1O (centres unmarked) [Example 277c]
Clinical Chemistry (Day 10) % of Control, AST [5]: +253%

N=C1NCC(C(O)C2NC(=O)C(Cc3ccc(OC4OC(CO)C(OC5OC(CO)C(O)C(O)C5O)C(O)C4O)cc3)NC(=O)C(CC3CCCCC3)NC(=O)CNC(=O)C(CO)NC(=O)C(C(O)C3CNC(=N)N3C3OC(CO)C(O)C(O)C3O)NC2=O)N1 (stereo not drawn) [Example 263, Cyclo[3-cyclohexylalanyl-O-(4-O-hexopyranosylhexopyranosyl)tyrosyl-3-(2-iminoimidazolidin-4-yl)seryl-3-(3-hexopyranosyl-2-iminoimidazolidin-4-yl)serylserylglycyl]] (cyclo(G[Cha]Y(X2)[ξEnduracididine(βξ-OH,4'ξ)][X1]S); configuration not given here)
median effective dose (ED50), Staphylococcus aureus-SMITH (GC 4543) [1]: >8
Anatomical Pathology (Day 10), Heart [2]: +
Anatomical Pathology (Day 10), Kidney [2]: ++
MIC Enterococcus avium (GC 4558) (Enterococcus sp.): >64 µg/mL
MIC Enterococcus faecalis (ATCC 29212) (Enterococcus sp.): >64 µg/mL
MIC Enterococcus faecalis (GC 2242) (Enterococcus sp.; Enterococcus faecalis (GC 2242), 18 hours at 35° C.): >64 µg/mL
MIC Enterococcus faecalis (GC 4552) (Enterococcus sp.; Enterococcus faecalis (GC 4552), 18 hours at 35° C.): >64 µg/mL
MIC Enterococcus faecalis (GC 4553) (Enterococcus sp.): >64 µg/mL
MIC Enterococcus faecalis (GC 4554) (Enterococcus sp.): >64 µg/mL
MIC Enterococcus faecium (GC 2243) (Enterococcus sp.): >64 µg/mL
MIC Enterococcus faecium (GC 4556) (Enterococcus sp.): >64 µg/mL
MIC Enterococcus faecium (GC 4557) (Enterococcus sp.): 32 µg/mL (≈ 24.9 µM)
MIC Escherichia coli (GC 4559) (Escherichia coli [3]): >64 µg/mL
MIC Escherichia coli (GC 4560) (Escherichia coli [3]): 16 µg/mL (≈ 12.4 µM)
MIC Streptococcus agalactiae (GC 4564) (Streptococcus sp.; Streptococcus agalactiae (GC 4564)): 32 µg/mL (≈ 24.9 µM)
MIC Streptococcus pyogenes (ID-3187) (Streptococcus sp.; Streptococcus pyogenes (ID-3187)): 32 µg/mL (≈ 24.9 µM)
MIC Coagulase Negative Staphylococcus (GC 4547) (Staphylococcus sp.): 64 µg/mL (≈ 49.7 µM)
MIC Coagulase Negative Staphylococcus (GC 4547) (Staphylococcus sp.; broth dilution): 64 µg/mL (≈ 49.7 µM)
MIC Coagulase Negative Staphylococcus (GC 4548) (Staphylococcus sp.): 32 µg/mL (≈ 24.9 µM)
MIC Coagulase Negative Staphylococcus (GC 4548) (Staphylococcus sp.; broth dilution): 32 µg/mL (≈ 24.9 µM)
MIC Coagulase Negative Staphylococcus (GC 4549) (Staphylococcus sp.): 16 µg/mL (≈ 12.4 µM)
MIC Coagulase Negative Staphylococcus (GC 4549) (Staphylococcus sp.; broth dilution): 16 µg/mL (≈ 12.4 µM)
MIC Coagulase Negative Staphylococcus (GC 4551) (Staphylococcus sp.): 64 µg/mL (≈ 49.7 µM)
MIC Coagulase Negative Staphylococcus (GC 4551) (Staphylococcus sp.; broth dilution): 64 µg/mL (≈ 49.7 µM)
MIC Staphylococcus aureus (ATCC 29213) (Staphylococcus sp.): 64 µg/mL (≈ 49.7 µM)
MIC Staphylococcus aureus (ATCC 29213) (Staphylococcus sp.; broth dilution): 64 µg/mL (≈ 49.7 µM)
MIC Staphylococcus aureus (GC 1131) (Staphylococcus sp.): 64 µg/mL (≈ 49.7 µM)
MIC Staphylococcus aureus (GC 1131) (Staphylococcus sp.; broth dilution): 64 µg/mL (≈ 49.7 µM)
MIC Staphylococcus aureus (GC 4541) (Staphylococcus sp.): 64 µg/mL (≈ 49.7 µM)
MIC Staphylococcus aureus (GC 4541) (Staphylococcus sp.; broth dilution): 64 µg/mL (≈ 49.7 µM)
MIC Staphylococcus aureus (GC 4542) (Staphylococcus sp.): 64 µg/mL (≈ 49.7 µM)
MIC Staphylococcus aureus (GC 4542) (Staphylococcus sp.; broth dilution): 64 µg/mL (≈ 49.7 µM)
MIC Staphylococcus aureus (GC 4544) (Staphylococcus sp.): >64 µg/mL
MIC Staphylococcus aureus (GC 4544) (Staphylococcus sp.; broth dilution): >64 µg/mL
MIC Staphylococcus aureus (GC 4545) (Staphylococcus sp.): 64 µg/mL (≈ 49.7 µM)
MIC Staphylococcus aureus (GC 4545) (Staphylococcus sp.; broth dilution): 64 µg/mL (≈ 49.7 µM)
MIC Staphylococcus aureus-SMITH (GC 4543) (Staphylococcus sp.): 32 µg/mL (≈ 24.9 µM)
MIC Staphylococcus aureus-SMITH (GC 4543) (Staphylococcus sp.; broth dilution): 32 µg/mL (≈ 24.9 µM)
MIC Staphylococcus haemolyticus (GC 4546) (Staphylococcus sp.): 32 µg/mL (≈ 24.9 µM)
MIC Staphylococcus haemolyticus (GC 4546) (Staphylococcus sp.; broth dilution): 32 µg/mL (≈ 24.9 µM)
MIC Escherichia coli (ATCC 25922) (Escherichia coli [4]): >64 µg/mL
